# Assay results from article PMC8230565, “Bisavenathramide Analogues as Nrf2 Inductors and Neuroprotectors in In Vitro Models of Oxidative Stress and Hyperphosphorylation” (Antioxidants, 2021).
# System: SH-SY5Y cells
# Assay: Total ROS production (H2DCFDA) in SH-SY5Y cells under R/O
# Type: cell-based
# Settings: 0.1, 1 and 10 µM; R/O 6 h
# Procedure: ROS production was evaluated using the fluorescent dye H2DCFDA [20]. Briefly, after deacetylation inside the cell, the H2DCF derivative is able to react with oxygen-free radicals and is transformed into dichlorofluorescein, increasing its fluorescence intensity. SH-SH5Y cells were seeded in 96-well clear-bottom black plates 6 × 10^4 cells/well. After 24 h, cells were treated with compound 3i at the desired concentrations for 24 h. Treatments were then eliminated and the cells were loaded with H2DCFDA (10 μM) for 45 min. […] Fluorescence was evaluated in a fluorescence microplate reader (Fluostar optima; BMG Labtech, Ortenberg, Baden-Württemberg, Germany) at 485/520 excitation/emission wavelengths, respectively. […]
# To further evaluate its mechanism of action, and considering the importance of exacerbated oxidative stress in neurodegenerative diseases, we evaluated its capacity to reduce free radical species production using the above-mentioned R/O toxic combination to generate ROS and measure the influence of 3i in the total ROS production by using the H2DCFDA dye, and also the specific superoxide production by using the selective dye dihydroetidium (DHE). […]
structure (smiles),measurement,value
"COC(=O)C1=C(C)N(CCc2ccccc2)C(=O)/C1=C\c1ccc(O)c(O)c1 [Compound 3i, Methyl (Z)-4-(3,4-Dihydroxybenzylidene)-2-methyl-5-oxo-1-phenethyl-4,5-dihydro-1H-pyrrole-3-carboxylate]",total ROS production (H2DCFDA),reduce ROS production almost to basal levels at all concentrations tested
